Measurements reported in patent US20090312284A1, “HISTONE DEACETYLASE INHIBITORS WITH COMBINED ACTIVITY ON CLASS-I AND CLASS-IIB HISTONE DEACETYLASES IN COMBINATION WITH PROTEASOME INHIBITORS” (priority 2006, published 2009).

Tests used:
[1] = system: acetylation of tubulin and induction of Hsp 70; experiment: Acetylation of tubulin and induction of Hsp 70 in A2780 cells; assay type: cell-based, human; conditions: A2780 ovarian carcinoma cells, 24 h, 0-3000 nM, Western blot
Experimental: Total cell lysates were prepared and analysed by SDS-PAGE. […] Hsp 70 protein was detected with an antibody from Stressgen (Cat. nr. SPA-810), followed by ECL detection. Appropriate dilutions of antibodies were incubated for either 1-2 h at room temperature or overnight at 4° C. In order to control for equal loading, blots were stripped and re-probed with mouse monoclonal anti-actin IgM (Ab-1, Oncogene Research Products). […] Protein-antibody complexes were then visualized by chemiluminescence (Pierce Chemical Co) or fluorescence (Odyssey) according to the manufacturer's instructions. The experiments were performed three times.

[2] = system: acetylation of histone H3 and H4 and induction of p21waf1,cip1; experiment: Acetylation of cellular HDAC 1 substrates and induction of p21waf1,cip1 in A2780 cells; assay type: cell-based, human; conditions: A2780 ovarian carcinoma cells, 24 h, 0-3000 nM, Western blot
Experimental: Total cell lysates were prepared and analysed by SDS-PAGE. Levels of acetylated H3 and H4 histones, total level of H3 proteins and levels p21^waf1,cip1 protein were detected using rabbit polyclonal and mouse monoclonal antibodies, followed by enhanced chemoluminescence (ECL) detection.
Appropriate dilutions of antibodies were incubated for either 1-2 h at room temperature or overnight at 4° C. […] Protein-antibody complexes were then visualized by chemiluminescence (Pierce Chemical Co) or fluorescence (Odyssey) according to the manufacturer's instructions. The experiments were performed three times.

HCT-116 cells = conditions: p21waf1,cip1 deficient cells as compared to the parental HCT-116 cells; cited from earlier work

Cc1[nH]c2ccccc2c1CCNCc1ccc(/C=C/C(=O)NO)cc1 [LBH-589]
concentration when start of induction of acetylation of tubulin and induction of Hsp 70 is observed [1]: 30 nM

O=C(NO)c1cnc(N2CCN(S(=O)(=O)c3ccc4ccccc4c3)CC2)nc1 [R306465]
concentration when induction of acetylation of histone H3 and H4 and induction of p21waf1,cip1 is observed [2]: 100 nM

O=C(CCCCCCC(=O)Nc1ccccc1)NO [SAHA, suberoylanilide hydroxamic acid]
concentration when induction of acetylation of histone H3 and H4 and induction of p21waf1,cip1 is observed [2]: 3000 nM
concentration when start of induction of acetylation of tubulin and induction of Hsp 70 is observed [1]: 100 nM

CC(/C=C/C(=O)NO)=C\[C@@H](C)C(=O)c1ccc(N(C)C)cc1 [trichostatin A]
increase in resistance to the HDAC inhibitor (HCT-116 cells): 6 fold
